From patent US20230145868A1, “UREA INHIBITORS OF MICRO-RNA” (Board of Regents, The University of Texas System, priority 2020, published 2023)

Assays:
miR-10b [1] = assay: Luciferase reporter assay of miR-10b inhibition, MCF7 cells; type: cell-based; conditions: Homo sapiens, MCF7, 48 h
Description: (§1) To identify miR-10b inhibitors, a luciferase reporter system was designed with complementary oligonucleotides for miR-10b.This luciferase reporter would repress Renilla luciferase signal in the presence of a functional mature miR-10b. However, in the presence of a small molecule that can inhibit mature miR-10b expression or affect its downstream function, the luciferase expression is restored again.
(§2) The PsiCHECK™-2 luciferase reporter vector was acquired from Promega™, Complementary oligonucleotides for hsa-miR-10b were designed based on the mature miRNA sequence and obtained from Thermo Fisher Scientific. In the design of the microRNA target sequence, several base pairs were added to have two different restriction sites recognizable by the enzyme SgfI at one side, and PmeI on the other (present in the vector as well). In addition, the insert was designed with a restriction site for SacI enzyme in order to have an additional site to digest the vector when monitoring colonies for the presence/absence of the insert. The designed oligonucleotides were annealed as follows: Complementary strands were mixed at a 1:1 molar ratio in a micro centrifuge tube. The mixture was diluted to a final concentration of 1 pmol/μl with a buffer solution of 10 mM Tris, 1 mM EDTA, and 50 mM NaCl (pH 8.0). Mixes were incubated at 95° C. for 5 min, and then the heat was reduced gradually for 70 min, until reaching 4° C. The annealed oligonucleotides were digested along with the PsiCHECK™2 vector with SgfI and PmeI and ligated at the 3′-UTR (downstream) of the Renilla luciferase reporter gene in the PsiCHECK™-2vector. Insert sequences were further confirmed in two ways: enzymatic digestion and sequencing.
(§3) MCF7 cells were seeded 24 h prior to transfection in 96 well plates (2.0×10^4 cells/well). For testing the sensitivity of the assay, antagomiRs and pre-miRs against miR-10b were used at a final concentration of 100 nM. For testing small molecule miRNA inhibitors, the compounds of interest were added to a final concentration of 10 μM. The assay was done in MCF7 or MDA-MB-231 cells at approximately 60% confluence using Lipofectamine in Opti-Mem media with the final vector concentration of 250 ng/mL. All transfections were performed in triplicate for statistical analysis. The cells were incubated at 37° C. for 6 h, followed by replacement of the transfected media with fresh media. After 48 h incubation, the media was removed, and cells were lysed and assayed with a Dual Luciferase Assay Kit (Promega) using a Vi-Tech luminometer. The ratio of Renilla to firefly luciferase expression was calculated for each of the triplicates.

miR-10b [2] = assay: Luciferase reporter assay of miR-10b inhibition, MDA-MB-231 cells; type: cell-based; conditions: Homo sapiens, MDA-MB-231, 48 h
Description: as §1, §2, §3

pre-miR-10b = assay: RT-qPCR of precursor miR-10b; type: cell-based, human; conditions: normalized to U6, vs DMSO
Description: Potential small molecule miRNA inhibitors were tested in MCF7 cells, a metastatic cell line (MM231) and an HCC cell line (HepG2) through RT-qPCR. Cells were seeded in 12-well plates 24 h before treatments at a confluence of 50-60%. They were treated at a concentration of 10 μM linifanib (positive control) or DMSO (negative control), and RNA was collected after 24 and 48 h. MicroRNA expression was tested using TaqMan microRNA assay (Applied Biosystems). The cDNA was synthesized using TaqMan Reverse Transcription Reagents kit (Applied Biosystems) and employed for quantitative RT-qPCR analysis together with TaqMan probes and SsoFastSupermix (Bio-rad). Primers and probes were purchased for hsa-miR-10b, hsa-pri-miR-10b, U6, and U48 snRNA that was used as an internal control.
To detect the levels of the precursor sequences, cDNA was synthesized using the SuperScript III cDNA kit (Invitrogen). Diluted cDNA was used for RT-qPCR analysis using iQ SYBR Green Supermix (Bio-Rad) with primers designed by in-house. Experiments were performed in triplicate; treated samples were compared to the DMSO-treated controls and normalized to the internal control. Relative expression levels were calculated using the 2-ΔCt method.

AsPC1 cell line = assay: Cell proliferation assay (WST-8 or MTS), AsPC1; type: cell-based, human
Description: IC50 dose-response curves were determined using the cell proliferation assay system. Briefly, 5,000 or 10,000 cells of each cell line were plated in 96-well microculture plates in replicates of either 4 or 6. When cells became adherent, either 5 or 10 sequentially decreasing doses of the small molecule miRNA inhibitor were diluted into new media and added to individual wells. After either 24 or 48 hours, of a tetrazolium salt such as MTS, MTT, or WST-8 was added to each well at the same time of day as treatment and incubated for either 2 or 3 h at 37° C. The OD, measuring at the appropriate wavelength for the dye, was read at on a microplate spectrophotometer.
Cell proliferation is determined using a colorimetric assay. A tetrazolium salt such as MTS, MTT, or WST-8 is reduced by dehydrogenase activities in cells to give a formazan dye, which is soluble in the tissue culture media. The amount of the formazan dye (generated by the activities of dehydrogenases in cells, and directly proportional to the number of living cells) is measured after 3 h of incubation. The OD is read at 450 nm on a microplate spectrophotometer and growth values (%) are calculated as (OD treated cells/OD untreated cells)×100. The experiments are performed in triplicate. […] The OD is read at 450/550 nm on a microplate spectrophotometer, after one to seven days of the treatment. […]

HOXD10 = assay: Western blot, HOXD10 expression; type: cell-based, human; conditions: vs DMSO
Description: Proteins are collected from cultured cells and lysed with 10× Lysis Buffer (Cell Signaling) freshly supplemented with a complete protease inhibitor cocktail and phosphatase inhibitors (Sigma). Bradford assay is used to measure protein concentration. Proteins are separated by polyacrylamide gel (Bio-rad) electrophoresis and were transferred to a 0.2 μm nitrocellulose membrane (Bio-rad). Quantification of protein expression was conducted using the image analysis software ImageJ.

[3] = Table 6, MCF7, second biological replicant, 10 μM compound, mean of triplicate, read-out: n-fold increase in luciferase expression, Mean
[4] = Table 6, MCF7, second biological replicant, 10 μM compound, replicate #1, read-out: n-fold increase in luciferase expression, #1
[5] = Table 6, MCF7, second biological replicant, 10 μM compound, replicate #2, read-out: n-fold increase in luciferase expression, #2
[6] = Table 6, MCF7, second biological replicant, 10 μM compound, replicate #3, read-out: n-fold increase in luciferase expression, #3
[7] = Table 5, MDA-MB-231, 10 μM compound, vs negative control (DMSO), mean of triplicate, read-out: n-fold increase in luciferase expression, Mean
[8] = Table 5, MDA-MB-231, 10 μM compound, vs negative control (DMSO), replicate #1, read-out: n-fold increase in luciferase expression, #1
[9] = Table 5, MDA-MB-231, 10 μM compound, vs negative control (DMSO), replicate #2, read-out: n-fold increase in luciferase expression, #2
[10] = Table 5, MDA-MB-231, 10 μM compound, vs negative control (DMSO), replicate #3, read-out: n-fold increase in luciferase expression, #3
[11] = Table 7, MDA-MB-231, second biological replicant, 10 μM compound, mean of triplicate, read-out: n-fold increase in luciferase expression, Mean
[12] = Table 7, MDA-MB-231, second biological replicant, 10 μM compound, replicate #1, read-out: n-fold increase in luciferase expression, #1
[13] = Table 7, MDA-MB-231, second biological replicant, 10 μM compound, replicate #2, read-out: n-fold increase in luciferase expression, #2
[14] = Table 7, MDA-MB-231, second biological replicant, 10 μM compound, replicate #3, read-out: n-fold increase in luciferase expression, #3

| Structure (SMILES) | fold induction at 10 µM (miR-10b [1]; [3]) | fold induction at 10 µM (miR-10b [1]; [4]) | fold induction at 10 µM (miR-10b [1]; [5]) | fold induction at 10 µM (miR-10b [1]; [6]) | fold induction at 10 µM (miR-10b [2]; [7]) | fold induction at 10 µM (miR-10b [2]; [8]) | fold induction at 10 µM (miR-10b [2]; [9]) | fold induction at 10 µM (miR-10b [2]; [10]) | fold induction at 10 µM (miR-10b [2]; [11]) | fold induction at 10 µM (miR-10b [2]; [12]) | fold induction at 10 µM (miR-10b [2]; [13]) | fold induction at 10 µM (miR-10b [2]; [14]) | expression of pre-miR-10b (pre-miR-10b; AGS gastric cell line) | expression of pre-miR-10b (pre-miR-10b; AsPC1 pancreatic cell line) | HOXD10 expression (Western blot) (HOXD10; AGS cell line) | also measured |
| --- | --- | --- | --- | --- | --- | --- | --- | --- | --- | --- | --- | --- | --- | --- | --- | --- |
| Cc1ccc(F)c(NC(=O)Nc2ccc(-c3cncnc3)cc2)c1 [Example 2, 1-(2-fluoro-5-methylphenyl)-3-(4-(pyrimidin-5-yl)phenyl)urea] | 2.44 | 2.51 | 2.84 | 1.96 | 1.58 | 1.45 | 1.9 | 1.38 | 2.13 | 2.38 | 1.88 | 2.15 | increased expression of pre-miR-10b | increased expression of pre-miR-10b | upregulated | fold induction at 10 µM (miR-10b [1]; Table 3, MCF7, 10 μM compound, vs negative control (DMSO), mean of triplicate, read-out: n-fold increase in luciferase expression, Mean): 2.19; fold induction at 10 µM (miR-10b [1]; Table 3, MCF7, 10 μM compound, vs negative control (DMSO), replicate #1, read-out: n-fold increase in luciferase expression, #1): 2.75; fold induction at 10 µM (miR-10b [1]; Table 3, MCF7, 10 μM compound, vs negative control (DMSO), replicate #2, read-out: n-fold increase in luciferase expression, #2): 1.78; fold induction at 10 µM (miR-10b [1]; Table 3, MCF7, 10 μM compound, vs negative control (DMSO), replicate #3, read-out: n-fold increase in luciferase expression, #3): 2.05; proliferation (AsPC1 cell line; 10 μM, vs DMSO): reduced proliferation |
| Cc1ccc(F)c(NC(=O)Nc2ccc(-c3cccc4cn[nH]c34)cc2)c1 [Example 4, 1-(4-(1H-indazol-7-yl)phenyl)-3-(2-fluoro-5-methylphenyl)urea] | 2.54 | 4.28 | 2.09 | 1.24 | 1.43 | 1.36 | 1.7 | 1.24 | 1.55 | 1.81 | 1.8 | 1.05 | increasing precursor miRNA transcript | increasing precursor miRNA transcript | upregulated | fold induction at 10 µM (miR-10b [1]; Table 4, MCF7, 10 μM compound, vs negative control (DMSO), mean of triplicate, read-out: n-fold increase in luciferase expression, Mean): 2.71; fold induction at 10 µM (miR-10b [1]; Table 4, MCF7, 10 μM compound, vs negative control (DMSO), replicate #1, read-out: n-fold increase in luciferase expression, #1): 1.95; fold induction at 10 µM (miR-10b [1]; Table 4, MCF7, 10 μM compound, vs negative control (DMSO), replicate #2, read-out: n-fold increase in luciferase expression, #2): 3.8; fold induction at 10 µM (miR-10b [1]; Table 4, MCF7, 10 μM compound, vs negative control (DMSO), replicate #3, read-out: n-fold increase in luciferase expression, #3): 2.39; proliferation (MTS), every 24 h over 96 h (AsPC1 cell line; 5 and 10 μM, beginning at 48 h of treatment): significant difference in proliferation; HOXD10 expression (Western blot) (HOXD10; AsPC1 cell line): upregulated |
